Reference: the supplement of paper PMC13380429

Experiments:
U2OS [1] = assay: cell viability relative to DMSO; higher = less toxic; details: 72 h
HepG2 [2] = assay: as above; details: 72 h
Calu-3 [3] = assay: as above; details: 72 h
Vero E6 [4] = assay: as above; details: 72 h
Caco-2 [5] = assay: as above; details: 72 h
U2OS [6] = assay: drug sensitivity score (DSS) for viability; higher = more toxic; extreme values may be limits of the assay; details: 72 h
HepG2 [7] = assay: as above; details: 72 h
Calu-3 [8] = assay: as above; details: 72 h
Vero E6 [9] = assay: as above; details: 72 h
Caco-2 [10] = assay: as above; details: 72 h
U2OS [11] = assay: relative viability EC50 (midpoint between 100% and the lowest measured viability); higher = less toxic; details: 72 h
HepG2 [12] = assay: as above; details: 72 h
Calu-3 [13] = assay: as above; details: 72 h
Vero E6 [14] = assay: as above; details: 72 h
Caco-2 [15] = assay: as above; details: 72 h
[16] = test system: A549-ACE2 infected with SARS-CoV-2; assay: SARS-CoV-2 infection rate relative to DMSO; higher = more infection; details: 24 h
[17] = test system: A549-ACE2 infected with SARS-CoV-2; assay: cell count relative to DMSO; higher = less toxic; details: 24 h
[18] = test system: A549-ACE2 infected with SARS-CoV-2; assay: morphology score (similarity to uninfected cells); higher = more like uninfected cells; details: 24 h
A549-ACE2 [19] = assay: drug-induced phospholipidosis relative to tamoxifen; higher = more phospholipidosis
A549-ACE2 [20] = assay: phospholipidosis EC50; higher = less potent phospholipidosis inducer

Cc1csc(NC(=O)CSc2ccc(-c3ccccc3)nn2)n1
Details | SARS-CoV-2 infection rate, [16] [%] | cell count, [17] [%] | cell viability, Caco-2 [5] [%] | cell viability, Calu-3 [3] [%] | cell viability, HepG2 [2] [%] | cell viability, U2OS [1] [%] | cell viability, Vero E6 [4] [%] | morphology score, [18]
1 nM | – | – | 92.1 | 85 | 97.8 | 98 | 101 | –
10 nM | – | – | 93.4 | 99.1 | 109 | 97.3 | 102 | –
100 nM | – | – | 103 | 104 | 90.4 | 102 | 99.1 | –
0.3 µM | 105 | 97 | – | – | – | – | – | -0.03
1000 nM | – | – | 97 | 99.3 | 89.1 | 99.3 | 105 | –
3 µM | 88 | 97 | – | – | – | – | – | 0.29
10000 nM | – | – | 104 | 108 | 87.4 | 104 | 94.5 | –
10 µM | 92 | 107 | – | – | – | – | – | 0.25
30 µM | 84 | 100 | – | – | – | – | – | 0.25

Details | drug sensitivity score | relative viability EC50 [µM]
Caco-2 [10] | 0 | –
Caco-2 [15] | – | > 10
Calu-3 [8] | 0 | –
Calu-3 [13] | – | > 10
HepG2 [7] | 1.2 | –
HepG2 [12] | – | > 10
U2OS [6] | 0 | –
U2OS [11] | – | > 10
Vero E6 [9] | 0 | –
Vero E6 [14] | – | > 10

drug-induced phospholipidosis [%], A549-ACE2 [19]
Details | 0.3 µM | 0.833333 µM | 3.33333 µM | 6.66667 µM | 10 µM | 30 µM
24 h | 1.93 | -1.81 | -0.96 | 2.15 | 1.89 | 7.11
48 h | 2.87 | 0.35 | 1.94 | 5.23 | 4.85 | 15.6
72 h | 2.21 | 0.253 | 3.17 | 3.1 | 6.16 | 24.6

O=C(COc1ccc(Cl)cc1)N[C@H]1CC[C@H](NC(=O)COc2ccc(Cl)cc2)CC1 [ISRIB]
Details | SARS-CoV-2 infection rate, [16] [%] | cell count, [17] [%] | cell viability, Caco-2 [5] [%] | cell viability, Calu-3 [3] [%] | cell viability, HepG2 [2] [%] | cell viability, U2OS [1] [%] | cell viability, Vero E6 [4] [%] | morphology score, [18]
1 nM | – | – | 98.5 | 107 | 98.4 | 99.7 | 92.2 | –
10 nM | – | – | 97.1 | 88.2 | 100 | 96.2 | 98.4 | –
100 nM | – | – | 95.1 | 101 | 105 | 99 | 97.2 | –
0.3 µM | 100 | 99 | – | – | – | – | – | -0.01
1000 nM | – | – | 96.6 | 101 | 100 | 96 | 95.2 | –
3 µM | 96 | 103 | – | – | – | – | – | 0.03
10000 nM | – | – | 106 | 99.1 | 96.3 | 99.2 | 91.3 | –
10 µM | 103 | 99 | – | – | – | – | – | 0.01
30 µM | 108 | 99 | – | – | – | – | – | -0.2

Details | drug sensitivity score | relative viability EC50 [µM]
Caco-2 [10] | 0 | –
Caco-2 [15] | – | > 10
Calu-3 [8] | 0 | –
Calu-3 [13] | – | > 10
HepG2 [7] | 0 | –
HepG2 [12] | – | > 10
U2OS [6] | 0 | –
U2OS [11] | – | > 10
Vero E6 [9] | 0 | –
Vero E6 [14] | – | > 10

drug-induced phospholipidosis [%], A549-ACE2 [19]
Details | 0.3 µM | 0.833333 µM | 3.33333 µM | 6.66667 µM | 10 µM | 30 µM
24 h | -0.51 | 0.36 | -2.23 | -2.98 | 3.29 | -1.76
48 h | 0.57 | -0.91 | -1.5 | 0.01 | 2.91 | 2.54
72 h | -0.626 | -0.0303 | -1 | 1.31 | 3.63 | 5.83

CCOc1cn(-c2ccc(F)cc2C)nc1C(=O)Nc1ccc(Oc2ccnc3cc(OC)c(OC)cc23)c(F)c1 [LDC1267]
Details | SARS-CoV-2 infection rate [%] | cell count [%] | cell viability [%] | morphology score | phospholipidosis EC50 [µM]
A549-ACE2 [20], 24 h | – | – | – | – | 3.79
A549-ACE2 [20], 72 h | – | – | – | – | 3.79
Caco-2 [5], 1 nM | – | – | 95.3 | – | –
Caco-2 [5], 10 nM | – | – | 96.1 | – | –
Caco-2 [5], 100 nM | – | – | 94.7 | – | –
Caco-2 [5], 1000 nM | – | – | 91.9 | – | –
Caco-2 [5], 10000 nM | – | – | 68.7 | – | –
Calu-3 [3], 1 nM | – | – | 100 | – | –
Calu-3 [3], 10 nM | – | – | 99 | – | –
Calu-3 [3], 100 nM | – | – | 95.3 | – | –
Calu-3 [3], 1000 nM | – | – | 87.9 | – | –
Calu-3 [3], 10000 nM | – | – | 73 | – | –
HepG2 [2], 1 nM | – | – | 106 | – | –
HepG2 [2], 10 nM | – | – | 94.7 | – | –
HepG2 [2], 100 nM | – | – | 99.9 | – | –
HepG2 [2], 1000 nM | – | – | 88.5 | – | –
HepG2 [2], 10000 nM | – | – | 76.2 | – | –
U2OS [1], 1 nM | – | – | 97.5 | – | –
U2OS [1], 10 nM | – | – | 101 | – | –
U2OS [1], 100 nM | – | – | 98.4 | – | –
U2OS [1], 1000 nM | – | – | 102 | – | –
U2OS [1], 10000 nM | – | – | 83.1 | – | –
Vero E6 [4], 1 nM | – | – | 105 | – | –
Vero E6 [4], 10 nM | – | – | 103 | – | –
Vero E6 [4], 100 nM | – | – | 103 | – | –
Vero E6 [4], 1000 nM | – | – | 96.9 | – | –
Vero E6 [4], 10000 nM | – | – | 100 | – | –
[16], 0.3 µM | 91 | – | – | – | –
[16], 3 µM | 107 | – | – | – | –
[16], 10 µM | 90 | – | – | – | –
[16], 30 µM | 93 | – | – | – | –
[17], 0.3 µM | – | 102 | – | – | –
[17], 3 µM | – | 100 | – | – | –
[17], 10 µM | – | 91 | – | – | –
[17], 30 µM | – | 84 | – | – | –
[18], 0.3 µM | – | – | – | 0.33 | –
[18], 3 µM | – | – | – | 0.25 | –
[18], 10 µM | – | – | – | 0.23 | –
[18], 30 µM | – | – | – | 0.15 | –

Details | drug sensitivity score | relative viability EC50 [µM]
Caco-2 [10] | 2.4 | –
Calu-3 [8] | 2 | –
HepG2 [7] | 2.2 | –
HepG2 [12] | – | > 10
U2OS [6] | 0.3 | –
U2OS [11] | – | > 10
Vero E6 [9] | 0 | –
Vero E6 [14] | – | > 10

drug-induced phospholipidosis [%], A549-ACE2 [19]
Details | 0.3 µM | 0.833333 µM | 3.33333 µM | 6.66667 µM | 10 µM | 30 µM
24 h | 2.46 | 2.17 | 18.8 | 41.1 | 67 | 35
48 h | 6.67 | 3.21 | 28.6 | 39.5 | – | 48.4
72 h | 7.89 | 6.46 | 31.2 | 48.2 | – | 61.4

CC(C)(Cc1ccc2ccccc2c1)NC[C@@H](O)COc1cccc(Cl)c1C#N [NPS-2143]
Details | SARS-CoV-2 infection rate [%] | cell count [%] | cell viability [%] | morphology score | phospholipidosis EC50 [µM]
A549-ACE2 [20], 24 h | – | – | – | – | 1.06
A549-ACE2 [20], 48 h | – | – | – | – | 2.34
A549-ACE2 [20], 72 h | – | – | – | – | 3.1
Caco-2 [5], 1 nM | – | – | 99.1 | – | –
Caco-2 [5], 10 nM | – | – | 101 | – | –
Caco-2 [5], 100 nM | – | – | 103 | – | –
Caco-2 [5], 1000 nM | – | – | 100 | – | –
Caco-2 [5], 10000 nM | – | – | 50.5 | – | –
Calu-3 [3], 1 nM | – | – | 89.4 | – | –
Calu-3 [3], 10 nM | – | – | 95.8 | – | –
Calu-3 [3], 100 nM | – | – | 96.7 | – | –
Calu-3 [3], 1000 nM | – | – | 103 | – | –
Calu-3 [3], 10000 nM | – | – | 0.6 | – | –
HepG2 [2], 1 nM | – | – | 100 | – | –
HepG2 [2], 10 nM | – | – | 104 | – | –
HepG2 [2], 100 nM | – | – | 103 | – | –
HepG2 [2], 1000 nM | – | – | 101 | – | –
HepG2 [2], 10000 nM | – | – | 53.9 | – | –
U2OS [1], 1 nM | – | – | 100 | – | –
U2OS [1], 10 nM | – | – | 97.9 | – | –
U2OS [1], 100 nM | – | – | 105 | – | –
U2OS [1], 1000 nM | – | – | 96.1 | – | –
U2OS [1], 10000 nM | – | – | 39.1 | – | –
Vero E6 [4], 1 nM | – | – | 93.1 | – | –
Vero E6 [4], 10 nM | – | – | 97.6 | – | –
Vero E6 [4], 100 nM | – | – | 93.5 | – | –
Vero E6 [4], 1000 nM | – | – | 99.6 | – | –
Vero E6 [4], 10000 nM | – | – | 84.4 | – | –
[16], 0.3 µM | 101 | – | – | – | –
[16], 3 µM | 23 | – | – | – | –
[16], 10 µM | 43 | – | – | – | –
[17], 0.3 µM | – | 100 | – | – | –
[17], 3 µM | – | 113 | – | – | –
[17], 10 µM | – | 68 | – | – | –
[18], 0.3 µM | – | – | – | 0.09 | –
[18], 3 µM | – | – | – | 0.87 | –
[18], 10 µM | – | – | – | 0.11 | –

Details | drug sensitivity score | relative viability EC50 [µM]
Caco-2 [10] | 2.6 | –
Calu-3 [8] | 5.3 | –
Calu-3 [13] | – | 3.32
HepG2 [7] | 2.3 | –
U2OS [6] | 3.9 | –
U2OS [11] | – | 2.65
Vero E6 [9] | 0.3 | –
Vero E6 [14] | – | > 10

drug-induced phospholipidosis [%], A549-ACE2 [19]
Details | 0.3 µM | 0.833333 µM | 3.33333 µM | 6.66667 µM | 10 µM | 30 µM
24 h | 14.7 | 30.2 | 98.4 | 140 | 135 | 14.7
48 h | 8.59 | 25.2 | 96.8 | 135 | 132 | –
72 h | 10.7 | 13.3 | 94 | 135 | 133 | –
